This is an account of results in patent US4707484A, “Substituted piperidinomethylindolone and cyclopent(b)indolone derivatives” (Hoffmann-La Roche Inc., priority 1986, dated 1987).

SMILES strings stand for the structures. Structures can show the parent of a compound that is named as a salt. Where two headings read alike, the source gives them in different places.

Data set [1] deals with apomorphine-induced rearing. In words: Antagonism of apomorphine-induced rearing in mice. The note with it: for ED50: Mus musculus; for Antagonism of Apomorphine Rearing % protected at 10 mg/kg: intravenous 10 mg/kg.
Data set [2] can be described thus: Side effect evaluation in dogs. The settings on record: oral 1 mg/kg, then one day later 10 mg/kg; observed six hours. Type of data set: in vivo, dog (beagle). The procedure: For side effect liability evaluation, pure breed beagle dogs from Marshall Inc., North Rose, N.Y., were used. Prior to dosing, the dogs were fasted for approximately 18 hrs. Dosing was orally by gelatin capsule. […] Compound of formula Ia was initially administered orally at a dose of 1 mg/kg and then one day later at an oral dose of 10 mg/kg. An experienced observer monitored these dogs for six hours, following dosing.

The test system of data set [3] is D-amphetamine hyperactivity (central nervous system dopamine receptors). In words: Antagonism of D-amphetamine hyperactivity in mice. The settings on record: Mus musculus, read-out: Antagonism of Amphetamine Hyperactivity ED50.
A further data set has as its target T1, dopamine receptors (Rattus norvegicus, UniProt P61169).
T1 construct: rat striatal brain homogenates; from tissue; host or cells: rat striatum (brain homogenate)
Nature of the data set: 3H-spiroperidol binding test (rat striatal brain homogenates). The settings on record: 0.2 nM 3H-spiroperidol, 20 min, read-out: Binding IC50 (inhibition of 3H-spiroperidol binding to dopamine receptors). The procedure: Dopamine receptor antagonism by compounds of formula I in vitro is determined by the ^3 H-spiroperidol binding assay. In this test, rat striatal brain homogenates were incubated for 20 minutes in the presence of 0.2 nanomolar ^3 H-spiroperidol and varying concentrations of test compounds. The incubations were terminated by rapid filtrations through Whatman GF/B filters, followed by 2×5 mL washes with ice-cold assay buffer (50 mM tribase-HCl pH 7.7 which contains fixed concentrations of 0.1% ascorbic acid, 120 mM NaCl, 5 mM KCl, 2 mM CaCl2, and 1 mM MgCl2).

Another data set relates to apomorphine emesis. Nature of the data set: Anti-apomorphine emesis in dogs. Type of data set: in vivo, dog (female Beagle). The note with it: Canis lupus familiaris, po; orally, 1 hour before apomorphine HCl 0.1 mg/kg s.c.; 1 hour observation; read-out: anti-emetic ED50 (apomorphine emesis). The procedure:
Pure-bred female Beagle dogs (Fa. WIGA, Versuchstier-Zuchtanstalt, 8741 Sulzfeld, GFR) with an approximate body weight of 15 kg were used. All dogs were shown previously to vomit at least four times during the 60 minutes following injection of 0.1 mg/kg apomorphine .HCl s.c. into the neck. Each dog was used in 14 day intervals. Three drug sessions were followed by an apomorphine control session.
The compound of formula If was administered suspended in 5% acacia at different dose levels by oral gavage to at least 4 dogs per dose. One hour later 0.1 mg/kg apomorphine .HCl was injected s.c. and the dogs observed for a further hour for vomiting.

In the next data set the test system is cisplatin-induced emesis. In words: Anti-cisplatin emesis in dogs. Type of data set: in vivo, dog (Beagle). The note with it: for effectiveness against apomorphine and cisplatin emesis (in words): dogs. As for the experimental part:
The procedure was as follows:
In the evaluation 6 male and 6 female Beagle dogs, supplied by White Eagle Laboratories, Doylestown PA., were used. Three dogs were tested daily. Each dog received either saline-placebo, 30 ml i.v.; the compound of formula If, 10 mg/kg i.v.; or domperidone 10 mg/kg i.v. The compound of formula If was dissolved in warm sterile water for injection. Domperidone was solubilized in acetic acid and the pH was adjusted with 2N NaOH. Both drugs were diluted to an infusion volume of 30 mL with sterile water. The treatments were infused over a 30-minute (n=3) or a 60-minute (n=9) period. […] The cisplatin, 1 mg/ml dissolved in sterile water, was infused over a 10 minute period. Each treatment was given to 2 male and 2 female weight-matched dogs.
The dogs were fed Wayne dog food moistened in water, 20 grams/kg, one hour prior to treatment. During the observation period the onset, frequency and severity of vomiting episodes as well as any atypical behavioral activity was recorded.
Statistical evaluation of emetic activity was done using Student's-t test for unpaired data.

Setting [4] is: po, 2 h, read-out: Antagonism of Apomorphine rearing ED50.
The mark [5] stands for this setting: 10 mg/kg i.v., cisplatin 3 mg/kg i.v.

T1 sequence (P61169 whole entry): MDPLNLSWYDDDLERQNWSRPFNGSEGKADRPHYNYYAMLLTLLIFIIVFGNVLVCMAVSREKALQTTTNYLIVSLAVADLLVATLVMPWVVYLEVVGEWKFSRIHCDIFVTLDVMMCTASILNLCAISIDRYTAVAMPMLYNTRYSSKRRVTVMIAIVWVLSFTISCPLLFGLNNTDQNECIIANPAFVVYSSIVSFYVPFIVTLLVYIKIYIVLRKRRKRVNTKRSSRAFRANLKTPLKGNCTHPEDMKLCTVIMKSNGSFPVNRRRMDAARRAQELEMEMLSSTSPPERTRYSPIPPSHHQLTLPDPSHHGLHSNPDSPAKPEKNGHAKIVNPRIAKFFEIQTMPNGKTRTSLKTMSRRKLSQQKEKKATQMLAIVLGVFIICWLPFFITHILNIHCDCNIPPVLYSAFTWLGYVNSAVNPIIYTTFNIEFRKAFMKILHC

Consider `CCc1c(C)[nH]c2c1C(=O)C(CN1CCC3(CC1)C(=O)NCN3c1ccccc1)CC2` (stereo not shown) [Compound Ia, 8-[(3-ethyl-4,5,6,7-tetrahydro-2-methyl-4-oxo-1H-indol-5-yl)methyl]-1-phenyl-1,3,8-triazaspiro[4.5]-decan-4-one], for which the ED50 in data set [1] (iv, 2 h, read-out: Antagonism of Apomorphine Rearing ED50) is 7 mg/kg; in data set [1] (iv, 7 h, read-out: Antagonism of Apomorphine Rearing ED50), 2.3 mg/kg; in data set [1] (setting [4]) it was over 100 mg/kg; in data set [3] (iv, 2 h) it was 15.9 mg/kg; in data set [3] (iv, 7 h), 8.6 mg/kg; in data set [3] (po, 1 h), over 100 mg/kg. Also, the “grossly observable abnormal signs (behavior, motor coordination)” value in data set [2] is reported as “Neither dose level produced any grossly observable alteration in behavior or motor coordination nor were any other abnormal signs seen”. For the same molecule, the half-maximal inhibitory concentration (IC50) at dopamine receptors came to 0.095 nM.
In the case of `CC1NC(=O)C2(CCN(CC3CCc4[nH]c5c(c4C3=O)CCC5)CC2)N1c1ccccc1` (stereo not shown) [Compound Ib, 8-[(1,2,3,4,5,6,7,8-octahydro-8-oxocyclopent[b]indol-7-yl)methyl]-2-methyl-1-phenyl-1,3,8-triazaspiro[4.5]-decan-4-one], the 50% effective dose (ED50) in data set [1] (setting [4]) was over 100 mg/kg; in data set [3] (po, 1 h), over 100 mg/kg. Moreover, the “Antagonism of Apomorphine Rearing % protected at 10 mg/kg” value in data set [1] (4 hr after administration) and in data set [1] (7 hr after administration) was 36% throughout. Also, the 50% inhibitory concentration (IC50) at dopamine receptors was 0.94 nM.
For `O=C1c2c([nH]c3c2CCC3)CCC1CN1CCC2(CC1)C(=O)NCN2C1CCCCC1` (stereo not shown) [Compound Ic, 8-[(1,2,3,4,5,6,7,8-octahydro-8-oxocyclopent[b]indol-7-yl)methyl]-1-cyclohexyl-1,3,8-triazaspiro[4.5]-decan-4-one], the ED50 is over 100 mg/kg in data set [1] (setting [4]) and over 100 mg/kg in data set [3] (po, 1 h). Moreover, the “Antagonism of Apomorphine Rearing % protected at 10 mg/kg” value in data set [1] (4 hr after administration) and in data set [1] (7 hr after administration) was 40% each time. Besides, the IC50 at dopamine receptors was 0.52 nM.
Turning to `Cc1[nH]c2c(c1C)C(=O)C(CN1CCC3(CC1)C(=O)NCN3c1ccccc1)CC2` (stereo not shown) [Compound Id, 8-[4,5,6,7-tetrahydro-(2,3-dimethyl-4-oxo-1H-indol-5-yl)methyl]-1-phenyl-1,3,8-triazaspiro[4.5]decan-4-one], the ED50 in data set [1] (iv, 4 h, read-out: Antagonism of Apomorphine Rearing ED50) is 5.1 mg/kg; in data set [1] (setting [4]), 12 mg/kg; in data set [3] (iv, 4 h), over 20 mg/kg; in data set [3] (po, 1 h), 147 mg/kg. Also, the IC50 on dopamine receptors was 0.078 nM.
For `CCc1c(C)[nH]c2c1C(=O)C(CN1CCC3(CC1)C(=O)NCN3C1CCCCC1)CC2` (stereo not shown) [Compound Ie], the ED50 worked out at 98 mg/kg in data set [1] (setting [4]) and 235 mg/kg in data set [3] (po, 1 h). Besides, the “Antagonism of Apomorphine Rearing % protected at 10 mg/kg” value in data set [1] (4 hr after administration) was 62%; in data set [1] (7 hr after administration), 79%. The IC50 at dopamine receptors came out at 0.082 nM.
For the molecule `O=C1c2c([nH]c3c2CCC3)CCC1CN1CCC2(CC1)C(=O)NCN2c1ccccc1` (stereo not shown) [Compound If, 1,2,3,5,6,7-hexahydro-7-[(4-oxo-1-phenyl-1,3,8-triazaspiro[4.5]decan-8-yl)methyl]-4H-cyclopent[b]indol-8(8H)-one], the ED50 is 12 mg/kg in data set [1] (setting [4]); 0.75 mg/kg in the data set on apomorphine emesis; over 100 mg/kg in data set [3] (po, 1 h). In addition, the IC50 on dopamine receptors was determined as 0.35 nM. Further, the “Vomiting episodes Mean (± S.E.) 6 Hrs” value in the data set on cisplatin-induced emesis (setting [5]) is given as 6.0 ± 1.8. For the same molecule, in the data set with cisplatin-induced emesis (setting [5]), the “Vomiting episodes Mean (± S.E.) 1 hr.” value amounted to 1.0 ± 0.4. For the same molecule, the “effectiveness against apomorphine and cisplatin emesis (in words)” value with cisplatin-induced emesis is “effective against both apomorphine and cisplatin emesis in dogs”.
As for `CN(C)CCCN1c2ccccc2Sc2ccc(Cl)cc21` [chloropromazine HCl, reference compound], the ED50 was found to be 4.9 mg/kg in data set [1] (setting [4]) and 2.1 mg/kg in data set [3] (po, 1 h).
In the case of `O=c1[nH]c2ccccc2n1CCCN1CCC(n2c(=O)[nH]c3cc(Cl)ccc32)CC1` [domperidone], the median effective dose (ED50) in data set [1] (setting [4]) was determined as 23 mg/kg. In the data set on apomorphine emesis, the median effective dose (ED50) was found to be 0.2 mg/kg. For the same molecule, the median effective dose (ED50) in data set [3] (po, 1 h) was found to be 194 mg/kg. Moreover, in the data set with cisplatin-induced emesis (setting [5]), the “emesis versus controls (in words)” value is listed as “did not differ significantly from controls”, the “Vomiting episodes Mean (± S.E.) 6 Hrs” value amounted to 12.5 ± 2.3 and the “Vomiting episodes Mean (± S.E.) 1 hr.” value is reported as 2.1 ± 0.7. In addition, the “effectiveness against apomorphine and cisplatin emesis (in words)” value in the data set with cisplatin-induced emesis is “only effective against apomorphine emesis in dogs”.
As for `O=C(CCCN1CCC(O)(c2ccc(Cl)cc2)CC1)c1ccc(F)cc1` [haloperidol, reference compound], the ED50 in data set [1] (setting [4]) was found to be 0.18 mg/kg; in data set [3] (po, 1 h), 0.23 mg/kg.

Usually ED50 stands for the dose at which the effect has come halfway, by size or by number of responders. In general, IC50 refers to the concentration that inhibits the measured activity by half.
